Data taken from publication PMC12692169, “Identification of Novel TAT-I24-Related Peptides with Antiviral Activities” (International Journal of Molecular Sciences, 2025).
Positions of bridges follow the written chain, without caps; N, C: chain ends. Residues, ends and D or L forms follow the SMILES beside them. No end group written: not given here.

Assays:
[1] = test system: mouse cytomegalovirus (MCMV)/NIH/3T3 cells; details: 72 h
Baculovirus/HEK293 = details: for IC50: 24 h
red blood cells (RBC) = test: RBC swelling (enlarged pellet after centrifugation); details: peptides diluted in PBS (absence of serum), up to 20 µM, 1 h, pellet size after centrifugation
plasmid-DNA (dsDNA) = test: Fluorescence-based dsDNA-binding assay (SYBR Gold, plasmid DNA); details: TAT-I24 as reference, three independent experiments in duplicates
Description: We also included the TAT peptide, which binds DNA [34, 35].
Peptides were incubated with plasmid-DNA in the presence of SYBR^TM Gold dye. Reduction in fluorescence indicates binding of peptides to DNA. […] Curve fitting was performed using GraphPad Prism software.
DNA binding assay was performed, as described previously [26].

[2] = test system: DiO-labelled MCMV in NIH/3T3 cells; details: previous study; cited from earlier work
Text: In contrast, the peptide TAT-M214, whi ...

## CC(C)C[C@H](NC(=O)[C@H](CS)NC(=O)[C@H](C)NC(=O)[C@H](Cc1ccc(O)cc1)NC(=O)[C@H](Cc1ccccc1)NC(=O)[C@H](C)NC(=O)[C@H](CC(C)C)NC(=O)[C@H](CCC(N)=O)NC(=O)[C@@H]1CCCN1C(=O)[C@@H]1CCCN1C(=O)[C@H](CCCNC(=N)N)NC(=O)[C@H](CCCNC(=N)N)NC(=O)[C@H](CCCNC(=N)N)NC(=O)[C@H](CCC(N)=O)NC(=O)[C@H](CCCNC(=N)N)NC(=O)[C@H](CCCNC(=N)N)NC(=O)[C@H](CCCCN)NC(=O)[C@H](CCCCN)NC(=O)[C@H](CCCNC(=N)N)NC(=O)CN)C(=O)N[C@@H](C)C(=O)N[C@@H](Cc1ccccc1)C(=O)N[C@@H](CS)C(=O)O [TAT-M14] (H-GRKKRRQRRRPPQLAFYACLAFC-OH; N-terminus and C-terminus assumed)
[1]
  IC50: 2570 nM
Baculovirus/HEK293
  IC50: 34 nM
Red blood cells (RBC)
  RBC swelling: caused RBC swelling at higher concentrations
plasmid-DNA (dsDNA)
  dsDNA-binding (reduction in SYBR Gold fluorescence): bind dsDNA

## CC(C)C[C@H](NC(=O)[C@H](CO)NC(=O)[C@H](CS)NC(=O)[C@H](CCC(N)=O)NC(=O)[C@@H]1CCCN1C(=O)[C@@H]1CCCN1C(=O)[C@H](CCCNC(=N)N)NC(=O)[C@H](CCCNC(=N)N)NC(=O)[C@H](CCCNC(=N)N)NC(=O)[C@H](CCC(N)=O)NC(=O)[C@H](CCCNC(=N)N)NC(=O)[C@H](CCCNC(=N)N)NC(=O)[C@H](CCCCN)NC(=O)[C@H](CCCCN)NC(=O)[C@H](CCCNC(=N)N)NC(=O)CN)C(=O)N[C@@H](C)C(=O)N1CCC[C@H]1C(=O)N[C@@H](C)C(=O)N[C@@H](CC(N)=O)C(=O)N[C@H](C(=O)N[C@@H](CS)C(=O)O)[C@@H](C)O [TAT-M43] (H-GRKKRRQRRRPPQCSLAPANTC-OH; N-terminus and C-terminus assumed)
Baculovirus/HEK293
  IC50: 306 nM
Baculovirus/HEK293; ratio to TAT-I24 IC50
  fold higher IC50 value compared to TAT-I24, baculovirus-transduced HEK293 cells: approximately 20 fold
Red blood cells (RBC)
  RBC swelling: did not cause RBC swelling in the absence of serum even at 20 µM
plasmid-DNA (dsDNA)
  dsDNA-binding (reduction in SYBR Gold fluorescence): less dsDNA-binding

## CLAFYACF (disulfide 1-7 (inferred)) [C22del_cyc, TAT-I24 with a cyclized I24 peptide (CLAFYACF), cyclized via the two cysteine residues; previous study]
[2]
  effect on localization of DiO-labelled MCMV: no effect on localization of DiO-labelled MCMV
